Source: article PMC8298602, “14-3-3-protein regulates Nedd4-2 by modulating interactions between HECT and WW domains” (Communications Biology, 2021)
Non-standard residues stand in square brackets, D forms with d. Residues, ends and D or L forms follow the SMILES beside them. *: point of attachment. FITC = O=C1OC2(c3ccc(O)cc3Oc3cc(O)ccc32)c2ccc(NC(=S)*)cc21; pT = C[C@@H](OP(=O)(O)O)[C@H](N)C(=O)O; pS = N[C@@H](COP(=O)(O)O)C(=O)O

Columns and labels:
Assay type in all cases: binding
Conditions in all cases: 14-3-3 titrated 80 to 0.003418, three replicates
14-3-3ζ = target: T1, 14-3-3ζ (Homo sapiens, UniProt P63104); test: fluorescence polarization (FP) with FITC-labeled phosphopeptides, 14-3-3ζ
T1 sequence (P63104 1-245): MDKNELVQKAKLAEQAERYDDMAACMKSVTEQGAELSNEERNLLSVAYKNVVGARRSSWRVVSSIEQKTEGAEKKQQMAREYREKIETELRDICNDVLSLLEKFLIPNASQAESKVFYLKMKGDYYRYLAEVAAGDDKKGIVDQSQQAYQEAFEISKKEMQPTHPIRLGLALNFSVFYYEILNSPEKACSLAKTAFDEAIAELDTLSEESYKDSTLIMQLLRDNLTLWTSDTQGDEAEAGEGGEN
Experimental: (§1) Fig. 4 14-3-3 isoform binding specificity of Nedd4-2 phosphomotifs. Binding of FITC-labeled phosphopeptides with 14-3-3 binding motifs of Nedd4-2 (pSer^342, pThr^367 or pSer^448) to all human 14-3-3 isoforms was characterized by FP titrations. The binding affinities of these peptides were determined by fitting FP data to a one-site binding model. The corresponding sequences of these peptides are shown at the top. Background polarization was subtracted from all values. Results are expressed as mean ± SD (n = 3). Error bars are not visible if they are smaller than the size of the symbol.
(§2) The FP assay was performed using a CLARIOstar microplate reader (BMG Labtech, […]) on 384-well black low-volume flat-bottom plates (Corning, New York, USA) in a buffer containing 10 mM HEPES (pH 7.4), 150 mM NaCl, 0.1% (v/v) Tween 20 and 0.1% (w/v) BSA. […] The excitation and emission wavelengths were 482 nm and 530 nm, respectively. The KD values were determined as the mean of three independent measurements using GraphPad Prism version 8.0.1 for Windows, GraphPad Software, La Jolla California USA, www.graphpad.com.
(§3) Results from the FP assay (Fig. 4) and immunoblot (Supplementary Fig. S1) are represented as means ± SD from three replicates as indicated in the figure legend. Statistical analysis for the data from immunoblot were performed using Graph-Pad Prism 8.4. Student’s t-test was used for comparison of relative changes of samples with and without 14-3-3η at selected timepoints (ns, non-significant P > 0.05; *, P < 0.05).

14-3-3ε = target: T2, 14-3-3ε (Homo sapiens, UniProt P62258); test: fluorescence polarization (FP) with FITC-labeled phosphopeptides, 14-3-3ε
T2 sequence (P62258 1-255): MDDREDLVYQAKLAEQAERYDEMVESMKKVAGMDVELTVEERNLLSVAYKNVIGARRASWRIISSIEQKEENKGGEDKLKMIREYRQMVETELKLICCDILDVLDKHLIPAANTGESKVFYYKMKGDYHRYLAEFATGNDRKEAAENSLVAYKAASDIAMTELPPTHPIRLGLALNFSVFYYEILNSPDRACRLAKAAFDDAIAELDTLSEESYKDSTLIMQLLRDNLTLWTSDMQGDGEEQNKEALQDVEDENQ
Experimental: as §1, §2, §3

14-3-3η = target: T3, 14-3-3η (Homo sapiens, UniProt Q04917); test: fluorescence polarization (FP) with FITC-labeled phosphopeptides, 14-3-3η
T3 sequence (Q04917 1-246): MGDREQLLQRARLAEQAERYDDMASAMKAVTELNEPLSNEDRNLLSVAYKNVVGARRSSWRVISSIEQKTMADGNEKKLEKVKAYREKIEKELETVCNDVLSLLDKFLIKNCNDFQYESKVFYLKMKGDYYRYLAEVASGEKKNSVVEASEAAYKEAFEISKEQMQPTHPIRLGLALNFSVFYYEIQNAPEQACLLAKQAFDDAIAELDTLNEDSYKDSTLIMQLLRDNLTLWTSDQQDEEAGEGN
Experimental: as §1, §2, §3

14-3-3σ = target: T4, 14-3-3σ (Homo sapiens, UniProt P31947); test: fluorescence polarization (FP) with FITC-labeled phosphopeptides, 14-3-3σ
T4 sequence (P31947 1-248): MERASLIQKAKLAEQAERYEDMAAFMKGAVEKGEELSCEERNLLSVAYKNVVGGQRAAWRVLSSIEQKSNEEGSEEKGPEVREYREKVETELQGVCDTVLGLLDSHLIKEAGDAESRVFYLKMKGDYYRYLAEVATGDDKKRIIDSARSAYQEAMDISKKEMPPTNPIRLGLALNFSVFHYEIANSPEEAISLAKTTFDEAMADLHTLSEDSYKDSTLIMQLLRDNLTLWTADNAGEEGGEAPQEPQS
Experimental: as §1, §2, §3

14-3-3γ = target: T5, 14-3-3γ (Homo sapiens, UniProt P61981); test: fluorescence polarization (FP) with FITC-labeled phosphopeptides, 14-3-3γ
T5 sequence (P61981 1-247): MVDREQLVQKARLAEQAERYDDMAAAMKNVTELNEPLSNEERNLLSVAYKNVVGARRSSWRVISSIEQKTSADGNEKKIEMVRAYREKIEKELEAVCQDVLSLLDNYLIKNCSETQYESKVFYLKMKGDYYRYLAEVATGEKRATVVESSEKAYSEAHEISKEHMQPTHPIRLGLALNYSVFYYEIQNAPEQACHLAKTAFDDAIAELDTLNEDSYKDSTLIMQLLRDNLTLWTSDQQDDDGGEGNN
Experimental: as §1, §2, §3

14-3-3τ = target: T6, 14-3-3τ (Homo sapiens, UniProt P27348); test: fluorescence polarization (FP) with FITC-labeled phosphopeptides, 14-3-3τ
T6 sequence (P27348 1-245): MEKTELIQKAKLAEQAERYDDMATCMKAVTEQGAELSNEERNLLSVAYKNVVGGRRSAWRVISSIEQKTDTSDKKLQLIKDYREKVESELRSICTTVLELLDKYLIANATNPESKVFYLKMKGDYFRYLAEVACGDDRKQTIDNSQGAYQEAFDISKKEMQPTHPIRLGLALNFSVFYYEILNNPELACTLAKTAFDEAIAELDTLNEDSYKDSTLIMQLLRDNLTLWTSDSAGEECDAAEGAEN
Experimental: as §1, §2, §3

14-3-3β = target: T7, 14-3-3β (Homo sapiens, UniProt P31946); test: fluorescence polarization (FP) with FITC-labeled phosphopeptides, 14-3-3β
T7 sequence (P31946 1-246): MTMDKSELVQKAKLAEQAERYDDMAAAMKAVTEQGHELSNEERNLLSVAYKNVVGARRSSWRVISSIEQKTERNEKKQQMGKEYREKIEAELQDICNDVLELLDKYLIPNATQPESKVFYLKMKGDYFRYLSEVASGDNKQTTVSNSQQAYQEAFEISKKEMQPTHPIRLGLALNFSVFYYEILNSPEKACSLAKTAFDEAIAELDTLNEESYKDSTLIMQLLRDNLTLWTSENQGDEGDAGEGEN
Experimental: as §1, §2, §3

Row | Structure (SMILES) | Bmax (One site -- Specific binding, best-fit value) (14-3-3ζ) | Bmax (One site -- Specific binding, best-fit value) (14-3-3ε) | Bmax (One site -- Specific binding, best-fit value) (14-3-3η) | Bmax (One site -- Specific binding, best-fit value) (14-3-3σ) | Bmax (One site -- Specific binding, best-fit value) (14-3-3γ) | Bmax (One site -- Specific binding, best-fit value) (14-3-3τ) | Bmax (One site -- Specific binding, best-fit value) (14-3-3β)
1 | CC(C)C[C@H](NC(=S)Nc1ccc2c(c1)C(=O)OC21c2ccc(O)cc2Oc2cc(O)ccc21)C(=O)N[C@@H](CCCNC(=N)N)C(=O)N[C@@H](CO)C(=O)N[C@@H](CS)C(=O)N[C@@H](COP(=O)(O)O)C(=O)N[C@H](C(=O)N[C@H](C(=O)N[C@@H](CC(=O)O)C(=O)N[C@@H](C)C(=O)N[C@H](C(=O)O)C(C)C)[C@@H](C)O)C(C)C [Nedd4-2 peptide pS342] ({FITC}-LRSC[pS]VTDAV-OH; C-terminus assumed) | 0.1453 | 0.261 | 0.164 | 0.9999 | 0.2226 | 0.1186 | 0.1665
2 | CC(C)[C@H](NC(=O)[C@@H](NC(=O)[C@H](CO)NC(=O)[C@H](CO)NC(=O)[C@H](CCCNC(=N)N)NC(=O)[C@H](C)NC(=S)Nc1ccc2c(c1)C(=O)OC21c2ccc(O)cc2Oc2cc(O)ccc21)[C@@H](C)OP(=O)(O)O)C(=O)N[C@H](C(=O)NCC(=O)NCC(=O)N[C@@H](CCC(=O)O)C(=O)O)[C@@H](C)O [Nedd4-2 peptide pT367] ({FITC}-ARSS[pT]VTGGE-OH; C-terminus assumed) | 1.002 | 0.3092 | 0.8265 | 0.1205 | 0.9894 | 0.7863 | 0.9561
3 | CC(C)C[C@H](NC(=O)[C@H](CO)NC(=O)[C@H](CCCNC(=N)N)NC(=O)[C@@H]1CCCN1C(=S)Nc1ccc2c(c1)C(=O)OC21c2ccc(O)cc2Oc2cc(O)ccc21)C(=O)N[C@@H](COP(=O)(O)O)C(=O)N[C@@H](CO)C(=O)N1CCC[C@H]1C(=O)N[C@H](C(=O)N[C@H](C(=O)N[C@H](C(=O)O)[C@@H](C)O)C(C)C)[C@@H](C)O [Nedd4-2 peptide pS448] ({FITC}-PRSL[pS]SPTVT-OH; C-terminus assumed) | 0.9954 | 0.7529 | 0.8968 | 0.7456 | 0.9424 | 0.8496 | 1
